Assay results from patent publication US7816408B2, “Calcium receptor active compounds” (NPS Pharmaceuticals, Inc., priority 2002, dated 2010).

What was measured:
human calcium receptor = molecular target: T1, human calcium receptor (Homo sapiens, UniProt P41180); test: Activity on calcium receptors: fluo-3 fluorescence in HEK293 cells transfected with human calcium receptor gene; format: cell-based; conditions: HEK293 cells transfected with plasmid pHuPCaR4.0 (human calcium receptor gene), loaded with fluo-3; 1 mM CaCl2, 1 mM MgCl2
T1 construct: expressed in transfected cells; host or cells: HEK293
T1 sequence (P41180 20-1078): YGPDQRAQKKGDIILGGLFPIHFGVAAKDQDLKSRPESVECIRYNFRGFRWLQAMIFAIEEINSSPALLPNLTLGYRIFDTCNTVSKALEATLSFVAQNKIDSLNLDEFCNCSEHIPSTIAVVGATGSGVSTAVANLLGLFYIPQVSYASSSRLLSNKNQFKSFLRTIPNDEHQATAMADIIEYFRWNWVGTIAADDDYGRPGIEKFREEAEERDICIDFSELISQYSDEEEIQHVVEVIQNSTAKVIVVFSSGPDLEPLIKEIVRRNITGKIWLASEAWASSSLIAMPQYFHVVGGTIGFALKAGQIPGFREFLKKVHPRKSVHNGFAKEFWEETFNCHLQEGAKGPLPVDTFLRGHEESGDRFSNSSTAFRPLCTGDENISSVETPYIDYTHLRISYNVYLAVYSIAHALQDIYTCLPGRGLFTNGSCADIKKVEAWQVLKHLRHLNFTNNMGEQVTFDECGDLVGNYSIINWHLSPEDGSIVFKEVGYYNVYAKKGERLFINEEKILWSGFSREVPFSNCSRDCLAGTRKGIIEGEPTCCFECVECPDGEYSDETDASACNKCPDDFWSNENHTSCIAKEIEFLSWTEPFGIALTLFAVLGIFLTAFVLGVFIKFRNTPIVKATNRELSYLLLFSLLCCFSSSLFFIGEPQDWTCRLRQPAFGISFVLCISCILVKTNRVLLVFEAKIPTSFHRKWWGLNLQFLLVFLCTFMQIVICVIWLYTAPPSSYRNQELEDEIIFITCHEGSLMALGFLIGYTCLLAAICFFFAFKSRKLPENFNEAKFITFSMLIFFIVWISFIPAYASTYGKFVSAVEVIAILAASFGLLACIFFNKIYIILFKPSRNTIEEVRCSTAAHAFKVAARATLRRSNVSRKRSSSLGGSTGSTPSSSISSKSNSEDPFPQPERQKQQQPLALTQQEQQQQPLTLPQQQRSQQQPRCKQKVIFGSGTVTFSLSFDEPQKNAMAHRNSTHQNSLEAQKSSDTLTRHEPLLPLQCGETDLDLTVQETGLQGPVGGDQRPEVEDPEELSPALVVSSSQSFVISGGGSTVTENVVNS
Method in brief: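 HEK293 cells transfected with human calcium receptor plasmid, loaded 1 h at 37 °C with about 5 μM fluo-3/AM. Cells then rinsed into HEPES-buffered HBSS with 1 mM CaCl2 and 1 mM MgCl2. Fluorescence read at 485/540 nm after compound addition.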

normal male SD rats = test: Plasma Ca^2+ level of rats after single oral administration; format: in vivo; conditions: rat, mean of six animals; for Plasma Ca^2+ (mmol/l) 1 hr: 1 hr after single oral dose 30 μmol/kg; for Plasma Ca^2+ (mmol/l) 1 hr / Plasma Ca^2+ (mmol/l) 2 hr / Plasma Ca^2+ (mmol/l) 4 hr / Plasma Ca^2+ (mmol/l) 8 hr / Plasma Ca^2+ (mmol/l) 24 hr / Plasma Ca^2+ (mmol/l) 0 hr / Plasma Ca^2+ (mmol/l) 27 hr (footnote *b, 24 hr): vehicle 10% cyclodextrin (** 1% sodium-CMC); for Plasma Ca^2+ (mmol/l) 2 hr: 2 hr after single oral dose 30 μmol/kg; for Plasma Ca^2+ (mmol/l) 4 hr: 4 hr after single oral dose 30 μmol/kg; for Plasma Ca^2+ (mmol/l) 8 hr: 8 hr after single oral dose 30 μmol/kg; for Plasma Ca^2+ (mmol/l) 24 hr: 24 hr after single oral dose 30 μmol/kg; for Plasma Ca^2+ (mmol/l) 0 hr: 0 hr = before oral administration of 30 μmol/kg; for Plasma Ca^2+ (mmol/l) 27 hr (footnote *b, 24 hr): 27 hr after single oral dose 30 μmol/kg
Protocol: The compound of the present invention was administered to rats so as to examine the effects of the compound on the plasma calcium ion level and serum PTH level. The test was performed by orally administering single dose of the compound of the invention or a control compound to normal male SD rats with six animals in each group.
To the group 1 was administered as a control a 10% cyclodextrin aqueous solution in a dose of 2.5 ml/kg. To the group 2 was administered as a reference (R)-N-(3-(2-chlorophenyl)propyl)-1-(3-methoxyphenyl)ethylamine (KRN568) dissolved in a 10% cyclodextrin aqueous solution in a dose of 30 μmol/kg. To the group 3 was administered the compound of the present invention dissolved in a 10% cyclodextrin aqueous solution in a dose of 30 μmol/kg, provided that 1% sodium-CMC aqueous solution was used in place of 10% cyclodextrin aqueous solution for the compounds marked with ** in Table 2.
Blood of each rat was collected from the tail tip before the administration and 30 minutes and 1, 2, 4, 8 and 24 hours thereafter (or at the time indicated in Table 2), and the plasma Ca^2+ level and serum PTH level were measured. The data of the serum PTH level were statistically processed by the multiple comparison analysis in accordance with Steel's calibration by using the group 1 as the control.

For `C[C@@H](NCCC(=O)N(Cc1ccc(C(F)(F)F)cc1)Cc1ccc(Cl)c(Cl)c1)c1cccc2ccccc12` [Compound K-2264, N1-(3,4-dichlorobenzyl)-N1-[(4-trifluoromethyl)benzyl]-3-{[(1R)-1-(1-naphthyl)ethyl]-amino}propanamide], the EC50 (human calcium receptor) was 16 nM, the “Plasma Ca^2+ (mmol/l) 1 hr” value (normal male SD rats) was 1.335 mmol/L and the “Plasma Ca^2+ (mmol/l) 2 hr” value (normal male SD rats) was 1.203 mmol/L. The “Plasma Ca^2+ (mmol/l) 4 hr” value (normal male SD rats) was 1.013 mmol/L, the “Plasma Ca^2+ (mmol/l) 8 hr” value (normal male SD rats) was 0.998 mmol/L and the “Plasma Ca^2+ (mmol/l) 24 hr” value (normal male SD rats) was 1.182 mmol/L. For the same compound, the “Plasma Ca^2+ (mmol/l) 31 hr (footnote *a, 48 hr column)” value (normal male SD rats; 31 hr after single oral dose 30 μmol/kg, 1% sodium-CMC) was 1.240*^a mmol/l.
With `C[C@@H](NCCC(=O)N(Cc1ccc(Cl)c(Cl)c1)Cc1ccc(Cl)c(Cl)c1)c1cccc2ccccc12` [Compound K-2265, N1,N1-di(3,4-dichlorobenzyl)-3-{[(1R)-1-(1-naphthyl)ethyl]amino}propanamide] the EC50 (human calcium receptor) was 61 nM, the “Plasma Ca^2+ (mmol/l) 1 hr” value (normal male SD rats) was 1.430 mmol/L and the “Plasma Ca^2+ (mmol/l) 2 hr” value (normal male SD rats) was 1.363 mmol/L. For the same compound, the “Plasma Ca^2+ (mmol/l) 4 hr” value (normal male SD rats) was 1.260 mmol/L and the “Plasma Ca^2+ (mmol/l) 8 hr” value (normal male SD rats) was 1.218 mmol/L.
`C[C@@H](NCCC(=O)N(Cc1ccc(Cl)cc1)Cc1ccc(C(F)(F)F)cc1)c1cccc2ccccc12` [Compound K-2266, N1-(4-chlorobenzyl)-N1-[(4-trifluoromethyl)benzyl]-3-{[(1R)-1-(1-naphthyl)ethyl]amino}propanamide] was tested, and the EC50 (human calcium receptor) was 36 nM, the “Plasma Ca^2+ (mmol/l) 0 hr” value (normal male SD rats) was 1.417 mmol/L and the “Plasma Ca^2+ (mmol/l) 1 hr” value (normal male SD rats) was 1.368 mmol/L. For the same compound, the “Plasma Ca^2+ (mmol/l) 2 hr” value (normal male SD rats) was 1.222 mmol/L, the “Plasma Ca^2+ (mmol/l) 4 hr” value (normal male SD rats) was 1.065 mmol/L and the “Plasma Ca^2+ (mmol/l) 8 hr” value (normal male SD rats) was 1.045 mmol/L. For the same compound, the “Plasma Ca^2+ (mmol/l) 24 hr” value (normal male SD rats) was 1.370 mmol/L.
In the case of `C[C@@H](NCCC(=O)N(Cc1ccc(Cl)cc1)Cc1ccc(Cl)c(Cl)c1)c1cccc2ccccc12` [Compound K-2267, N1-(4-chlorobenzyl)-N1-(3,4-dichlorobenzyl)-3-{[(1R)-1-(1-naphthyl)ethyl]amino}propanamide], the EC50 (human calcium receptor) is reported as 14 nM, the “Plasma Ca^2+ (mmol/l) 1 hr” value (normal male SD rats) is reported as 1.347 mmol/L and the “Plasma Ca^2+ (mmol/l) 2 hr” value (normal male SD rats) is reported as 1.212 mmol/L. The “Plasma Ca^2+ (mmol/l) 4 hr” value (normal male SD rats) was 1.027 mmol/L, the “Plasma Ca^2+ (mmol/l) 8 hr” value (normal male SD rats) was 1.022 mmol/L and the “Plasma Ca^2+ (mmol/l) 24 hr” value (normal male SD rats) was 1.312 mmol/L.
With `COc1cccc(SCCCCN[C@H](C)c2cccc3ccccc23)c1` [Compound K-2269, N-{4-[(3-methoxyphenyl)thio]butyl}-N-[(1R)-1-(1-naphthyl)ethyl]amine] the EC50 (human calcium receptor) was 71 nM, the “Plasma Ca^2+ (mmol/l) 1 hr” value (normal male SD rats) was 1.152 mmol/L and the “Plasma Ca^2+ (mmol/l) 2 hr” value (normal male SD rats) was 1.140 mmol/L. The “Plasma Ca^2+ (mmol/l) 4 hr” value (normal male SD rats) was 1.097 mmol/L and the “Plasma Ca^2+ (mmol/l) 8 hr” value (normal male SD rats) was 1.173 mmol/L.
With `COc1ccc(CN(Cc2ccc(OC)cc2)C(=O)CCN[C@H](C)c2cccc3ccccc23)cc1` [Compound K-2270, N1,N1-di(4-methoxybenzyl)-3-{[(1R)-1-(1-naphthyl)ethyl]amino}propanamide] the EC50 (human calcium receptor) was 140 nM, the “Plasma Ca^2+ (mmol/l) 1 hr” value (normal male SD rats) was 1.355 mmol/L and the “Plasma Ca^2+ (mmol/l) 2 hr” value (normal male SD rats) was 1.238 mmol/L. For the same compound, the “Plasma Ca^2+ (mmol/l) 4 hr” value (normal male SD rats) was 1.088 mmol/L and the “Plasma Ca^2+ (mmol/l) 8 hr” value (normal male SD rats) was 1.175 mmol/L.
For `CCOc1ccc2sc(SCCCCN[C@H](C)c3cccc4ccccc34)nc2c1` [Compound K-2271], the EC50 (human calcium receptor) was 140 nM, the “Plasma Ca^2+ (mmol/l) 0 hr” value (normal male SD rats) was 1.428 mmol/L and the “Plasma Ca^2+ (mmol/l) 1 hr” value (normal male SD rats) was 1.278 mmol/L. For the same compound, the “Plasma Ca^2+ (mmol/l) 2 hr” value (normal male SD rats) was 1.227 mmol/L, the “Plasma Ca^2+ (mmol/l) 4 hr” value (normal male SD rats) was 1.128 mmol/L and the “Plasma Ca^2+ (mmol/l) 8 hr” value (normal male SD rats) was 1.197 mmol/L.
`C[C@@H](NCCC(=O)N(Cc1ccc(OC(F)(F)F)cc1)Cc1ccc(Cl)c(Cl)c1)c1cccc2ccccc12` [Compound K-2272, N1-(3,4-dichlorobenzyl)-N1-[4-(trifluoromethoxy)benzyl)-3-{[(1R)-1-(1-naphthyl)ethyl]-amino}propanamide] was tested, and the EC50 (human calcium receptor) was 52 nM, the “Plasma Ca^2+ (mmol/l) 1 hr” value (normal male SD rats) was 1.382 mmol/L and the “Plasma Ca^2+ (mmol/l) 2 hr” value (normal male SD rats) was 1.237 mmol/L. The “Plasma Ca^2+ (mmol/l) 4 hr” value (normal male SD rats) was 1.075 mmol/L, the “Plasma Ca^2+ (mmol/l) 8 hr” value (normal male SD rats) was 1.022 mmol/L and the “Plasma Ca^2+ (mmol/l) 24 hr” value (normal male SD rats) was 1.240 mmol/L.
With `COc1cccc(SCCCCCN[C@H](C)c2cccc3ccccc23)c1` [Compound K-2279, N-{[5-(3-methoxyphenyl)thio]pentyl}N-[(1R)-1-(1-naphthyl)ethyl]amine] the EC50 (human calcium receptor) was 630 nM, the “Plasma Ca^2+ (mmol/l) 0 hr” value (normal male SD rats) was 1.443 mmol/L and the “Plasma Ca^2+ (mmol/l) 1 hr” value (normal male SD rats) was 1.200 mmol/L. For the same compound, the “Plasma Ca^2+ (mmol/l) 2 hr” value (normal male SD rats) was 1.155 mmol/L, the “Plasma Ca^2+ (mmol/l) 4 hr” value (normal male SD rats) was 1.130 mmol/L and the “Plasma Ca^2+ (mmol/l) 8 hr” value (normal male SD rats) was 1.210 mmol/L. For the same compound, the “Plasma Ca^2+ (mmol/l) 24 hr” value (normal male SD rats) was 1.445 mmol/L.
`COc1ccc(SCCCCCN[C@H](C)c2cccc3ccccc23)cc1` [Compound K-2280] was tested, and the EC50 (human calcium receptor) was 270 nM, the “Plasma Ca^2+ (mmol/l) 0 hr” value (normal male SD rats) was 1.443 mmol/L and the “Plasma Ca^2+ (mmol/l) 1 hr” value (normal male SD rats) was 1.233 mmol/L. For the same compound, the “Plasma Ca^2+ (mmol/l) 2 hr” value (normal male SD rats) was 1.167 mmol/L, the “Plasma Ca^2+ (mmol/l) 4 hr” value (normal male SD rats) was 1.077 mmol/L and the “Plasma Ca^2+ (mmol/l) 8 hr” value (normal male SD rats) was 1.142 mmol/L. The “Plasma Ca^2+ (mmol/l) 24 hr” value (normal male SD rats) was 1.405 mmol/L.
In the case of `C[C@@H](NCCCCSc1cc(Cl)c(Cl)cc1Cl)c1cccc2ccccc12` [Compound K-2281, N-[(1R)-1-(1-naphthyl)ethyl]-N-{4-[(2,4,5-trichlorophenyl)thio]butyl}amine], the EC50 (human calcium receptor) is reported as 430 nM, the “Plasma Ca^2+ (mmol/l) 1 hr” value (normal male SD rats) is reported as 1.380 mmol/L and the “Plasma Ca^2+ (mmol/l) 2 hr” value (normal male SD rats) is reported as 1.245 mmol/L. For the same compound, the “Plasma Ca^2+ (mmol/l) 4 hr” value (normal male SD rats) was 1.103 mmol/L, the “Plasma Ca^2+ (mmol/l) 8 hr” value (normal male SD rats) was 0.993 mmol/L and the “Plasma Ca^2+ (mmol/l) 27 hr (footnote *b, 24 hr)” value (normal male SD rats) was 1.230*^b mmol/l.
With `C[C@@H](NCCCCCSc1cc(Cl)c(Cl)cc1Cl)c1cccc2ccccc12` [Compound K-2282, N-[(1R)-1-(1-naphthyl)ethyl]-N-{5-[(2,4,5-trichlorophenyl)thio]pentyl}amine] the EC50 (human calcium receptor) was 340 nM, the “Plasma Ca^2+ (mmol/l) 1 hr” value (normal male SD rats) was 1.425 mmol/L and the “Plasma Ca^2+ (mmol/l) 2 hr” value (normal male SD rats) was 1.298 mmol/L. The “Plasma Ca^2+ (mmol/l) 4 hr” value (normal male SD rats) was 1.168 mmol/L, the “Plasma Ca^2+ (mmol/l) 8 hr” value (normal male SD rats) was 1.078 mmol/L and the “Plasma Ca^2+ (mmol/l) 27 hr (footnote *b, 24 hr)” value (normal male SD rats) was 1.230*^b mmol/l.
